Measurements: PMC4774911, “Biochemical Screening of Five Protein Kinases from Plasmodium falciparum against 14,000 Cell-Active Compounds” (PLoS ONE, 2016)
Values joined by “and” are separate entries in the source; they are usually repeats but may differ in a detail not shown here. Identical values can stand only once. Like-named read-outs stand apart in the source and are kept apart here.

Experiments:
PRKACB = PRKACB (Homo sapiens, UniProt P22694); experiment: biochemical; parameters: endogenous in cells; host or cells: K562 cell extract; species or system K562 (extract); replicate k of n = 2 (each experiment ID is one independent experiment; two experiment IDs per compound); settings: read-out: KDapp
MINK1 = MINK1 (Homo sapiens, UniProt Q8N4C8); experiment: biochemical; parameters: endogenous in cells; host or cells: K562 cell extract; species or system K562 (extract); replicate k of n = 2 (each experiment ID is one independent experiment; two experiment IDs per compound); settings: read-out: KDapp
Sequence of MINK1 (Q8N4C8 whole entry): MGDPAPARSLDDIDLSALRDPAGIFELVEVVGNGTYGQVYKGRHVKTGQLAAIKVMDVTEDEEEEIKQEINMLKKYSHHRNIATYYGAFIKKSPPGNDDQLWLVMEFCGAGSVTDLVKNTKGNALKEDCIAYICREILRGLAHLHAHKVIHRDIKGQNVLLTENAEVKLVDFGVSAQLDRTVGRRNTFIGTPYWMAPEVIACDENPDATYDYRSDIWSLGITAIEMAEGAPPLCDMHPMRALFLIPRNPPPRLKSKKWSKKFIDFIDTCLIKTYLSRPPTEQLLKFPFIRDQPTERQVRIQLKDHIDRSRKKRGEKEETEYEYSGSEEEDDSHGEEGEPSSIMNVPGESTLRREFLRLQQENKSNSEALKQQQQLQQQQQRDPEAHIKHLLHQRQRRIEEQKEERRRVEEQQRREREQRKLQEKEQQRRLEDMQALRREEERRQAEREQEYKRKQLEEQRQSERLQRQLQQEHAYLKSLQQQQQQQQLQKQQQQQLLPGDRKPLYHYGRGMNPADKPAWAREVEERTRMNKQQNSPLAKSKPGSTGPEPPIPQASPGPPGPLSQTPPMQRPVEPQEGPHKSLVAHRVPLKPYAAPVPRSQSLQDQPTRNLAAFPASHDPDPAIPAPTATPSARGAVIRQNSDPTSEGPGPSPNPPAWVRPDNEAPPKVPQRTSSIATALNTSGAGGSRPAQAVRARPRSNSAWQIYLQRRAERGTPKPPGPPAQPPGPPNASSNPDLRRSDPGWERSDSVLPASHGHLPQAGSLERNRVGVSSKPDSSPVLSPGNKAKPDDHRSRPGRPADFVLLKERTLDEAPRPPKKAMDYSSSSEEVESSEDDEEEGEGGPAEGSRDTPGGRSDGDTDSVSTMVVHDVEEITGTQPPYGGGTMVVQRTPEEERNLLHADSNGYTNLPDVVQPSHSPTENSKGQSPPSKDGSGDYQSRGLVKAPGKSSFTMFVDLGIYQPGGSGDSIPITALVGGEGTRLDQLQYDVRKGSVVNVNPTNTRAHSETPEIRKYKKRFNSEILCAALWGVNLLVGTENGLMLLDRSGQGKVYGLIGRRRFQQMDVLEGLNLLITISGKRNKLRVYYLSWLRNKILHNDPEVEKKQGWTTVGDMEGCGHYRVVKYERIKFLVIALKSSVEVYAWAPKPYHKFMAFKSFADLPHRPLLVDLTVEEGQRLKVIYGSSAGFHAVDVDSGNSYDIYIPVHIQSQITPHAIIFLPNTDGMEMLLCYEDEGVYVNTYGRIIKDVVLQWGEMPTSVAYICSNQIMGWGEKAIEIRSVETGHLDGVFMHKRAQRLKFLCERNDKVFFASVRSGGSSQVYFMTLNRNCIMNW

AURKB = AURKB (Homo sapiens, UniProt Q96GD4); experiment: biochemical; parameters: endogenous in cells; host or cells: K562 cell extract; species or system K562 (extract); replicate k of n = 2 (each experiment ID is one independent experiment; two experiment IDs per compound); settings: read-out: KDapp
Sequence of AURKB (Q96GD4 whole entry): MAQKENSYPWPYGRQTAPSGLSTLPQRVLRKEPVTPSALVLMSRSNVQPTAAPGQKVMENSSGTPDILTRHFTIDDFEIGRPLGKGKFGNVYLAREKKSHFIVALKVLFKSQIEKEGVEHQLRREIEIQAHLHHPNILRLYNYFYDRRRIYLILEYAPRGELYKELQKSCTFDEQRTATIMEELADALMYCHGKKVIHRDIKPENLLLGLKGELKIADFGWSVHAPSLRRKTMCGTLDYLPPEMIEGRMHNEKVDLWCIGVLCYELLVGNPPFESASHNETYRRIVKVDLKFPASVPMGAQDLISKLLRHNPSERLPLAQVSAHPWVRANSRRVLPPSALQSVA

PRKCB = PRKCB (Homo sapiens, UniProt P05771); experiment: biochemical; parameters: endogenous in cells; host or cells: K562 cell extract; species or system K562 (extract); replicate k of n = 2 (each experiment ID is one independent experiment; two experiment IDs per compound); settings: read-out: KDapp
Sequence of PRKCB (P05771 whole entry): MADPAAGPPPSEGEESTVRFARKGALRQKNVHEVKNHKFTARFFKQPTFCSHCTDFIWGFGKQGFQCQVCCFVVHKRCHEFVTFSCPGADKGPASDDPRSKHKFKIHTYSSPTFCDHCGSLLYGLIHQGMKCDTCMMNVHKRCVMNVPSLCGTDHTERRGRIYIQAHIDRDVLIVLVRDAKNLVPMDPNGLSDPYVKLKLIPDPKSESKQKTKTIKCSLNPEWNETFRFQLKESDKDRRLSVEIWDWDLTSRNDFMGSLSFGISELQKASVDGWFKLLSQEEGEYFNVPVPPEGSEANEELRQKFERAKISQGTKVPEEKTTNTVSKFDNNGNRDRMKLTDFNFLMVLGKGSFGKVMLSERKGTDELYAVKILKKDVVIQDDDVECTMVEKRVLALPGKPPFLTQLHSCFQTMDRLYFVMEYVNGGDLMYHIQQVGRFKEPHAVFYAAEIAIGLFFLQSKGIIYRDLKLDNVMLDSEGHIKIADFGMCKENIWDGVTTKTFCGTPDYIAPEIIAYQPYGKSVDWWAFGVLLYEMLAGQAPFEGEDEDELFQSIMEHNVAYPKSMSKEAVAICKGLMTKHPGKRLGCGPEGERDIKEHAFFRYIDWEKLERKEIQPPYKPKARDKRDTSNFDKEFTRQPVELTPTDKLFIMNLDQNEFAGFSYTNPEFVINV

CDK7 = CDK7 (Homo sapiens, UniProt P50613); experiment: biochemical; parameters: endogenous in cells; host or cells: K562 cell extract; species or system K562 (extract); replicate k of n = 2 (each experiment ID is one independent experiment; two experiment IDs per compound); settings: read-out: KDapp
Sequence of CDK7 (P50613 whole entry): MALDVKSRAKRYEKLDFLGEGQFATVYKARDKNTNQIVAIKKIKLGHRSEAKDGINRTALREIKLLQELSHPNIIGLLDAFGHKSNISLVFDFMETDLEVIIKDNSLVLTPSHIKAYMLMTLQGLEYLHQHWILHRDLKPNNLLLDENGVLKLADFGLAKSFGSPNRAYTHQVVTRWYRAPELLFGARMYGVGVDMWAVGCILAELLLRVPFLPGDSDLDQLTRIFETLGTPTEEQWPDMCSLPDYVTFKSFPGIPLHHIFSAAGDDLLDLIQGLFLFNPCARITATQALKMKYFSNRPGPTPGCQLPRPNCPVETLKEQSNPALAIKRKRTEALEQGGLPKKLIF

PTK2 = PTK2 (Homo sapiens, UniProt Q05397); experiment: biochemical; parameters: endogenous in cells; host or cells: K562 cell extract; species or system K562 (extract); replicate k of n = 2 (each experiment ID is one independent experiment; two experiment IDs per compound); settings: read-out: KDapp
Sequence of PTK2 (Q05397 whole entry): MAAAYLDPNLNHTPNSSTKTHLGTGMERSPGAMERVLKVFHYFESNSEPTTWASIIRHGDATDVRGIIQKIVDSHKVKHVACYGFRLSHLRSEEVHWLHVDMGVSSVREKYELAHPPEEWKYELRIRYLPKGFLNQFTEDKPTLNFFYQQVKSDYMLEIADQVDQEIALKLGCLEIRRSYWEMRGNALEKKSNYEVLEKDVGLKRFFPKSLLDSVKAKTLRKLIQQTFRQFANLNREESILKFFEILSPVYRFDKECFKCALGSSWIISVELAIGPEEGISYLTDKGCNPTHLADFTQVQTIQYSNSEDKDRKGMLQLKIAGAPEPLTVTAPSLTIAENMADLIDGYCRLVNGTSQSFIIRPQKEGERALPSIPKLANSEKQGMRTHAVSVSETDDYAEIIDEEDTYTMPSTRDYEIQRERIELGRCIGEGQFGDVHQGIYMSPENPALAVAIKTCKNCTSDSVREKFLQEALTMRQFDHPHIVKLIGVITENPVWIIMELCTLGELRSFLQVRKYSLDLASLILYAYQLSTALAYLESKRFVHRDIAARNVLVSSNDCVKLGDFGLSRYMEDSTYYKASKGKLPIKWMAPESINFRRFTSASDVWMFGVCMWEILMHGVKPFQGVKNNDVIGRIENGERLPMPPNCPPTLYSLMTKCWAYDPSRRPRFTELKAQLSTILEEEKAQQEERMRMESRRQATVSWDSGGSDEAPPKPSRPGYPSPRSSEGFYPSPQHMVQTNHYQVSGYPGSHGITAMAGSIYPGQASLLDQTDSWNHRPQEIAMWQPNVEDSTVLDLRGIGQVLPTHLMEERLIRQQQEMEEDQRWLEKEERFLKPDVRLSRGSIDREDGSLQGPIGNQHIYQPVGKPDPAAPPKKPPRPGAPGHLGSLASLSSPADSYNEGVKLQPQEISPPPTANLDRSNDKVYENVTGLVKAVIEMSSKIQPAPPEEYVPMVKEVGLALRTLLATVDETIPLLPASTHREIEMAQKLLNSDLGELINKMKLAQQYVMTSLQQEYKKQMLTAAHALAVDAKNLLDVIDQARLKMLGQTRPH

YES1 = YES1 (Homo sapiens, UniProt P07947); experiment: biochemical; parameters: endogenous in cells; host or cells: K562 cell extract; species or system K562 (extract); replicate k of n = 2 (each experiment ID is one independent experiment; two experiment IDs per compound); settings: read-out: KDapp
Sequence of YES1 (P07947 whole entry): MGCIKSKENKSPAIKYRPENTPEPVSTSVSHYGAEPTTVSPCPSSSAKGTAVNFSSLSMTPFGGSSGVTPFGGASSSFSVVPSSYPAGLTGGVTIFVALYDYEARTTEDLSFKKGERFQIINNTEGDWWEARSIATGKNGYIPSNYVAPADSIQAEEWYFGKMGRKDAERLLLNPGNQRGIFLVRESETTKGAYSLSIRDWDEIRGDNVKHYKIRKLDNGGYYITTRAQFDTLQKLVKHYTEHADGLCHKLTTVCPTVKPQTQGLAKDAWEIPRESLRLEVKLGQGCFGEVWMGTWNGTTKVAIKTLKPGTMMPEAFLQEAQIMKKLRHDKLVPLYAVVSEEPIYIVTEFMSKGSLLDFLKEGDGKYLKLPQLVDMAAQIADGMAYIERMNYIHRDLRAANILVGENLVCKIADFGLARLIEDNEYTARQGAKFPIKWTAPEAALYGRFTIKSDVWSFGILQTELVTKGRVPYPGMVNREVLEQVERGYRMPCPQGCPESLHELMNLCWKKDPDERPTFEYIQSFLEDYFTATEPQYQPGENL

PIP4K2A = biological target: T1, PIP4K2A (Homo sapiens, UniProt P48426); experiment: biochemical; parameters: endogenous in cells; host or cells: K562 cell extract; species or system K562 (extract); replicate k of n = 2 (each experiment ID is one independent experiment; two experiment IDs per compound); settings: read-out: KDapp
T1 sequence (P48426 1-406): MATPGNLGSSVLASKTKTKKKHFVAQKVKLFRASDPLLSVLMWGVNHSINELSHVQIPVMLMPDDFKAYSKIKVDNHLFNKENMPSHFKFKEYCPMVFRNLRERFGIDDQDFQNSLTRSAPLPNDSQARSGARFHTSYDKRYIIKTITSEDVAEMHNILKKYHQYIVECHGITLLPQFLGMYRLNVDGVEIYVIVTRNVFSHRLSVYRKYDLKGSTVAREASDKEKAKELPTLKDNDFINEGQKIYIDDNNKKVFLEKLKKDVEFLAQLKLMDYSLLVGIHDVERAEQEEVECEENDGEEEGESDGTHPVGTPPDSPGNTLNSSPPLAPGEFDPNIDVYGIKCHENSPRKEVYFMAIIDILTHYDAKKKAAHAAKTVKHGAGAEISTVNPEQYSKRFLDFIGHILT

LYN = LYN (Homo sapiens, UniProt P07948); experiment: biochemical
Sequence of LYN (P07948 whole entry): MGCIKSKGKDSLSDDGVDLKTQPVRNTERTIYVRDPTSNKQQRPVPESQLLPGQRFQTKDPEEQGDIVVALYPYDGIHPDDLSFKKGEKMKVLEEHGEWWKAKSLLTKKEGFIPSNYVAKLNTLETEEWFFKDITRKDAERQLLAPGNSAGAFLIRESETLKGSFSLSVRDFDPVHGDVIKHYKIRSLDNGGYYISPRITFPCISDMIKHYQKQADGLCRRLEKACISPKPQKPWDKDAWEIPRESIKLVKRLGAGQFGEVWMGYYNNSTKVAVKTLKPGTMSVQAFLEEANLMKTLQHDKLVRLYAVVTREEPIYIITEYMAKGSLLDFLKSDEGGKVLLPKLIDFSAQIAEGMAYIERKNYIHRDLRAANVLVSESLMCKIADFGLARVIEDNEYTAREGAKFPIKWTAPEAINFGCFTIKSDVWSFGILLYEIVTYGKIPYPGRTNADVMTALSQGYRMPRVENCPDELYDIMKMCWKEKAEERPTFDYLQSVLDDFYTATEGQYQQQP

NEK9 = biological target: T2, NEK9 (Homo sapiens, UniProt Q8TD19); experiment: biochemical
T2 sequence (Q8TD19 1-979): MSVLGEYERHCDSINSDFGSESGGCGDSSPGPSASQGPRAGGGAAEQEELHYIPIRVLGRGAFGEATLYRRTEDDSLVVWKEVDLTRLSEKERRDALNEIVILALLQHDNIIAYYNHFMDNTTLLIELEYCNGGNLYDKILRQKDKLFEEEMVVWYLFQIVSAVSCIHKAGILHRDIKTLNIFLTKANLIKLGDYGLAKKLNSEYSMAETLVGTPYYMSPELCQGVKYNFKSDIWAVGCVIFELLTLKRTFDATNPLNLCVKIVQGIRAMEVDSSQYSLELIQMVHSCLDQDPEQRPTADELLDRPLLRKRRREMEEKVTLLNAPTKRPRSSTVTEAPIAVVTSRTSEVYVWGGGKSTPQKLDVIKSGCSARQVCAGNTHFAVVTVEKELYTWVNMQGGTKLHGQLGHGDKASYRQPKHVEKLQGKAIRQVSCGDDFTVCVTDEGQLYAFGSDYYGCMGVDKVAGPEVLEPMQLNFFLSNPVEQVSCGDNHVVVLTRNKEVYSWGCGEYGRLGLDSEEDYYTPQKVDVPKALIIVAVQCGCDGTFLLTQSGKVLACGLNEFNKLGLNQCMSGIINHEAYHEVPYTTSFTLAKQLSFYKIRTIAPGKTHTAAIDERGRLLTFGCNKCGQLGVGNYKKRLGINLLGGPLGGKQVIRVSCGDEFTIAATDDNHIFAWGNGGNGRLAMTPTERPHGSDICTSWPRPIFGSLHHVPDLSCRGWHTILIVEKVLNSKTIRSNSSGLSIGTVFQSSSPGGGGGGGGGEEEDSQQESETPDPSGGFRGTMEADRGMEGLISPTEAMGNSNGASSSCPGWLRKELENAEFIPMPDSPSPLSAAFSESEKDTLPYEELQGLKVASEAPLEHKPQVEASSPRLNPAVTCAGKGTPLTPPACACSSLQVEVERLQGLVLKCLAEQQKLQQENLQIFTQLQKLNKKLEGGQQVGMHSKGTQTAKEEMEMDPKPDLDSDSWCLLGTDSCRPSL

HepG2 cells = settings: cited from earlier work
LOC100128443 = settings: human

SMILES	Kd (PRKACB)	Kd (MINK1)	Kd (AURKB)	Kd (PRKCB)	Kd (CDK7)	Kd (PTK2)	Kd (YES1)	Kd (PIP4K2A)	IC50 (LYN)	IC50 (NEK9)	Inhibition of HepG2 cell growth at 10 μM (HepG2 cells)	PCT_INHIB_HEPG2 (HepG2 cells; HepG2, downloaded from ChEMBL, ref F.J. Gamo et al., Nature 2010)	IC50 (LOC100128443)	PCT_INHIB_HEPG2 (HepG2 cells; HepG2 cells, downloaded from ChEMBL ref F.J. Gamo et al., Nature 2010)	PCT_INHIB_HEPG2 (HepG2 cells; HepG2 cells, ref ChEMBL)
CN1CCN(c2ccc(Nc3ncc(C#N)c(Nc4ccccc4C(N)=O)n3)cc2)CC1.Cl [TCMDC-134116]	5740 nM	173 nM	14.3 nM and 22.8 nM	410 nM	422 nM and 494 nM	13.2 nM and 17.4 nM	40.6 nM and 50.7 nM	775 nM and 987 nM	280 nM and 350 nM	770 nM and 580 nM	43%	43%	330 nM		
Cl.NCC1(c2nc(-c3ccc(Cl)c(O)c3)c(-c3ccncc3)[nH]2)CCCCC1 [TCMDC-141154]	811 nM	837 nM		5660 nM and 2780 nM			1490 nM and 2600 nM		1300 nM	> 20000 nM	48%		> 20000 nM	48	
CN(C)CC(O)COc1ccc(Nc2ncc([N+](=O)[O-])c(Nc3ccccc3O)n2)cc1.O=C(O)C(F)(F)F (stereo not shown) [TCMDC-141399]			1500 nM		1430 nM and 4620 nM	26.9 nM and 29 nM		846 nM and 669 nM	> 20000 nM	> 20000 nM	47%		> 20000 nM		47
